Values after ≈ are worked out from the molar mass of the structure shown.
What was measured:
Rhizoctonia solani = details: 10 ppm; 3–7 days of incubation
Method: After 3–7 days of incubation, inhibition of mycelial growth is recorded using the following scale: The data obtained are shown in Table VI.

Venturia inaequalis = experiment: Evaluation of in vivo fungicidal activity, Apple Scab (AS); details: plants sprayed with 200 ppm test solution, inoculated the same day
[1] = Evaluation of in vivo fungicidal activity, Grape downy mildew (GDM); set-up: species or system Uniclnula necator; details: plants sprayed with 200 ppm test solution, inoculated the same day
[2] = system: Pyricularia grisea sp. oryzae; assay type: in vivo; details: Rice Blast; plants sprayed with 200 ppm test solution, inoculated the same day
Pyricularia Oryzae = assay type: cell-based; details: lowest concentration causing total inhibition of mycelial growth; 6–12 days incubation at 18 to 25° C.; visual inspection

SMILES	Rhizoctonia solani (Rice sheath blight) inhibition of mycelial growth rating (Rhizoctonia solani)	AS disease control rating (Venturia inaequalis)	GDM disease control rating [1]	RB disease control rating [2]	MIC (Pyricularia Oryzae) [µg/mL]
CC(Nc1nc(N(C)C#N)nc(Cl)c1-c1c(F)cc(F)cc1F)C(F)(F)F (centres unmarked) [Example 1, 2-(N-cyano-N-methylamino)-4-chloro-5-(2,4,6-trifluorophenul)-6-(1,1,1-trifluoroprop-2-ylamino)-pyrimidine]	7	–	–	–	–
CCCCN(C#N)c1nc(Cl)c(-c2c(F)cc(F)cc2F)c(NC(C)C(F)(F)F)n1 (centres unmarked) [Example 2]	–	0 (0)	0 (0)	0 (0)	–
CC(C)Nc1nc(N(C)C#N)nc(Cl)c1-c1c(F)cc(F)cc1F [Example 3]	–	7 (90–95)	7 (90–95)	5 (60–74)	3.13 (≈ 8.8 µM)
CN(C#N)c1nc(Cl)c(-c2c(F)ccc(F)c2F)c(NC2CCCC2)n1 [Example 4]	7	5 (60–74)	3 (30–44)	3 (30–44)	>100
CC1CCN(c2nc(N(C)C#N)nc(Cl)c2-c2c(F)cccc2Cl)CC1 [Example 5]	0	9 (100)	0 (0)	4 (45–59)	25 (≈ 63.4 µM)
CCC(C)Nc1nc(N(C)C#N)nc(Cl)c1-c1c(F)cccc1Cl (centres unmarked) [Example 6]	0	9 (100)	3 (30–44)	6 (75–89)	6.25 (≈ 17 µM)
CC1CCN(c2nc(N(C)C#N)nc(Cl)c2-c2c(F)cc(F)cc2F)CC1 [Example 7]	0	–	–	–	100 (≈ 253 µM)
CC(N(C)c1nc(N(C)C#N)nc(Cl)c1-c1c(F)cc(F)cc1F)C(F)(F)F (centres unmarked) [Example 8]	7	–	–	–	–
